A short description of data set [1]: SABRE polarization build-up and T1 relaxation dynamics in SABRE solvents. Type of data set: physicochemical. Conditions: for 13C T1 decay / polarization build-up Tb: 0.4 μT. As for the experimental part:
CD3OD is widely used as the SABRE-reaction-hosting solvent because it provides convenient means of attaining high-field NMR spectrometer lock. However, non-deuterated polarization media may be preferred for biomedical applications. For this reason, systematic relaxation dynamics studies were performed comparing CD3OD, CH3OH, and C2H5OH for SABRE-SHEATH [1-^13C]pyruvate hyperpolarization, investigating relevant parameters for these solvents and for fixed concentrations of pyruvate, SABRE catalyst, and DMSO (30 mM, 6 mM, and 40 mM, respectively). However, the ethanol sample was prepared with only 6 mM pyruvate and 10% H2O due to limited solubility. The optimal Br was similar in all investigated samples (≈0.4 μT, FIG. 4A). […] (FIG. 4B). Thus, all the experiments described below were performed using these optimized Br and Tr parameters.
The polarization build-up (Tb) and decay (T1) at 0.4 μT were similar: Tb=13.7±0.6 s versus 19.3±0.6 s; and T1=26.0±0.4 s versus 29.1±0.8 s, respectively (FIGS. 4C, 4E). P13C values were also similar; in one representative example of polarization build-up, P13C was 7.8±0.1% vs. 8.5±0.1% for CH3OH and CD3OD media, respectively, FIG. 4D. […] For ethanol, 1.4-fold lower P13C values were obtained in this mixture compared to CH3OH and CD3OD, which is rationalized by a more efficient relaxation at the SABRE-SHEATH field, FIG. 4E.
Data fitting and error propagation for relaxation and polarization build-up data presented in FIGS. 4A-4I: Data in FIGS. 4C, 4F, 4H was fitted using mono-exponential functions (solid lines) and extracted values with error of polarization build-up or relaxation are presented in bar plots (FIGS. 4D, 4E, 4G, 4I).

Data set [2] is described as follows: Precipitation without water addition: 13C polarization of residual dissolved pyruvate in organic phase. It counts as physicochemical. The note with it: for P13C in precipitated sample, no water added / 13C polarization in precipitated sample, no water added: residual dissolved pyruvate in EtAc/CH3OH. The procedure: To investigate the impact of precipitate relaxation in variable magnetic fields during the dissolution process, the Re-D SABRE experiment was repeated, omitting the addition of water after precipitation (i.e., the decay of ^13C HP signal in the dissolved phase of the precipitated samples was measured). […] For (iii), P13C was still much lower compared to the sample that rested at the 1.4 T magnet (setup iv), i.e., P13C=0.08±0.02% and P13C=3.4±0.9%, respectively—this signal is entirely derived from the remaining dissolved pyruvate in solution (2.3±0.6 mM in the 500 μL sample of EtAc and CH3OH, FIG. 17) not from the precipitated micro-crystalline phase. […] This observation is important because it means the Re-D SABRE process can be successfully performed at storage fields as low as 0.3 T. The rapid ^13C T1 of HP [1-^13C]pyruvate in the EtAc fraction at Earth's field, estimated to be <1.3 s, may be caused by the high catalyst: substrate ratio in the EtAc.
Description of the magnets used in the precipitation and relaxation study: The precipitation and phase separation approach was investigated at 4 different magnetic fields: (i) Earth's field; (ii) 10 mT; (iii) 0.3 T; and (iv) 1.4 T. For (i), the samples were positioned in a plastic holder at a defined position in the laboratory at which a magnetic field of ≈40 μT was measured. For (ii), a modified setup of permanent magnets creating a 10 mT magnetic field over a volume of ≈20×10×10 cm^3 was employed. For (iii), a hollow cylindrical magnet (K&J Magnetics, Inc., P/N RY04Y0) was used with a length of 5.1 cm and an inner bore of approximately 6.4 mm diameter in which the NMR tube was positioned. For (iv), the NMR benchtop spectrometer was used, which approximately provides the constant 1.4 T field up to 10 cm above the magnet center.

`CC(=O)[13C](=O)O` [[1-^13C]pyruvate]: the figures for the “13C T1 decay” value in data set [1] (30 mM in CD3OD) and in data set [1] (30 mM in CH3OH) were 26.0 ± 0.4 s and 29.1 ± 0.8 s, respectively. In addition, the “polarization build-up Tb” value in data set [1] (30 mM in CD3OD) was determined as 13.7 ± 0.6 s; in data set [1] (30 mM in CH3OH), 19.3 ± 0.6 s. The “13C T1 relaxation time” value in data set [1] (30 mM in CD3OD, 1.4 T) was found to be 86 ± 2 s; in data set [1] (30 mM in CH3OH, 1.4 T), 59.3 ± 0.8 s. Besides, the T1 relaxation time worked out at 59.3 ± 0.5 s in data set [1] (60 mM in CH3OH, 1.4 T) and 34.6 ± 1.1 s in data set [1] (60 mM in CH3OH, 300 nT). In addition, the “polarization build-up time constant Tb” value in data set [1] (60 mM in CH3OH, 300 nT) came to 22.0 ± 0.7 s. For the same compound, in data set [1] (dissolved in CH3OH:catalyst mixture, Earth's field), the “1-13C T1” value came out at 46.5 ± 0.9 s. The “P13C in precipitated sample, no water added” value in data set [2] (0.3 T (iii)) was 0.08±0.02%; in data set [2] (1.4 T (iv)), 3.4±0.9%. For the same compound, the “13C polarization in precipitated sample, no water added” value in data set [2] (10 mT (ii)) and in data set [2] (Earth's field (i)) was “no measurable ^13C polarization was observed” in each case. Also, the “P13C in (iii) 0.3 T lower than in (iv) 1.4 T” value in data set [2] (dissolved phase in EtAc fraction) is “≈ 40 times”.
